Laboratory results published in patent EP4810498A1, “MEDICATION FOR TREATING SEVERE MALARIA AND SYNTHESIS METHOD THEREFOR” (Institute of Chinese Materia Medica, China Academy of …, priority 2023, dated 2025).
Read-outs that look alike come from different tables or passages of the source. Each block holds one compound with its values, some of them ahead of it.

What was measured:
[1] = system: Plasmodium falciparum 3D7; assay: SYBR Green assay, growth inhibition of Plasmodium falciparum cultured in vitro; type: cell-based
Experimental: Plasmodium falciparum in the ring stage was synchronized. Smearing was carried out and the infection rate was counted. The synchronized parasitized red blood cells, healthy red blood cells and mediums were matched in a reasonable ratio, resulting in an in vitro culture system of plasmodia (ring bodies, 2 to 4 hours-old) with a hematocrit of 2% and an infection rate of 1%. […] A1-A10 was paved with 25 µl of drugs (with 8 complex wells for each drug) and mixed evenly, and then diluted in multiple proportions (Ax-Hx). Except for A12-H12, 50 µL of a plasmodium culture solution was spread in all the other wells; and A12-H12 was spread with 50 µl of healthy red blood cells (in the medium with a hematocrit of 2%). […] 100 µl of a lysis buffer was added to each of the wells and put into a drawer to avoid light for 1 h.
In this experiment, SYBR Green assay was used to determine the median inhibitory concentration (IC50) value of the drug for treating Plasmodium falciparum 3D7. Nonlinear regression was used to calculate the value by means of software graphpad prism 8.0 (the value was equal to average value plus or minus standard error), and a four-parameter logistic fitting curve was used. Each value in the curve was equal to average value plus or minus standard error in eight biological repetitive experiments.

[2] = system: Plasmodium berghei ANKA strain; assay: Survival rate of cerebral malaria model mice; type: in vivo, C57BL/6J mice; settings: 15.6 mg/kg AS, nasal drip, four consecutive days; 28 days of observation
Description: (§1) Experimental study on the antimalarial activity of Artesunazine (Example Ia-1) in vitro and vivo. I. Protection of Artesunazine on mice infected by Plasmodium berghei ANKA strain. (I) Experimental materials: • 1. Animals: C57BL/6J, weighing 16-18 g, 10 in each group, 50 in total. • 2. Plasmodium strain: Plasmodium berghei ANKA strain, donated by Professor Zhao Ya of Air Force Medical University of the People's Liberation Army of China (The Fourth Military Medical University), was preserved in our laboratory by blood transmission or freezing. • 3. Drugs and preparation methods: Artesunazine and a positive control drug artesunate were dissolved in a mixed solvent of polyethylene glycol 400 (PEG400) and water (PEG400:water=4:1), serving as a preparation for immediate use. (II) Experimental methods • 1. Plasmodium resuscitation and passage: A Plasmodium berghei ANKA strain frozen in liquid nitrogen was taken out and placed in a water bath kettle at 37°C. After melting, it was immediately intraperitoneally inoculated into C57BL/6J mice (0.2 mL/mouse). When the infection rate of the breeding mice reached 15-30%, their eyeballs were removed and blood was collected in an anticoagulant tube. After shaking well, the blood was transmitted to offspring C57BL/6J mice with a 1 mL syringe at an injection dose of 0.2 mL/mouse. • 2. Plasmodium inoculation: C57BL/6J mice were weighed and fed adaptively. When the infection rate of offspring C57BL/6J mice reached 15-30%, the total number of red blood cells and the number of pRBCs were counted after their eyeballs were removed and blood was collected. The blood was injected intraperitoneally into model group C57BL/6J mice at an injection dose of 0.2 mL (including 1×10^7 pRBCs) per mouse, which was the 0th day (D0) of inoculation. • 3. Animal grouping: After inoculation, the experimental mice were randomly divided into 5 groups, including a model (M) group, high, medium and low dose Artesunazine groups (i.e., 40 mg/kg, 20 mg/kg, and 10 mg/kg Artesunazine), and an artesunate group (i.e., 15.6 mg/kg AS, clinically equivalent dose). The dosage of the medium dose Artesunazine group (20mg/kg Artesunazine) is equivalent to that of the artesunate group (15.6 mg/kg). There are 10 mice in each group, a total of 50 mice. • 4. Determination of survival rate From the 0th day of inoculation, the death of mice was observed every day for 28 consecutive days. Survival rate = (Number of surviving mice)/(Number of experimental mice) × 100% [formula] • 5. Determination of recurrence rate After inoculation, the mice were randomly divided into groups and administered via nasal drip for 3 h. […] The mouse recurrence rate was calculated by the ratio of the number of mice with recurrence to the total number of mice. […]

[3] = system: Plasmodium berghei ANKA strain; assay: Recurrence rate of cerebral malaria model mice (blood smear); type: in vivo, C57BL/6J mice; settings: AS group (15.6 mg/kg)
Description: Experimental study on the antimalarial activity of Artesunazine (Example Ia-1) in vitro and vivo. I. Protection of Artesunazine on mice infected by Plasmodium berghei ANKA strain. (I) Experimental materials: • 1. Animals: C57BL/6J, weighing 16-18 g, 10 in each group, 50 in total. • 2. Plasmodium strain: Plasmodium berghei ANKA strain, donated by Professor Zhao Ya of Air Force Medical University of the People's Liberation Army of China (The Fourth Military Medical University), was preserved in our laboratory by blood transmission or freezing. • 3. Drugs and preparation methods: Artesunazine and a positive control drug artesunate were dissolved in a mixed solvent of polyethylene glycol 400 (PEG400) and water (PEG400:water=4:1), serving as a preparation for immediate use. (II) Experimental methods • 1. Plasmodium resuscitation and passage: A Plasmodium berghei ANKA strain frozen in liquid nitrogen was taken out and placed in a water bath kettle at 37°C. After melting, it was immediately intraperitoneally inoculated into C57BL/6J mice (0.2 mL/mouse). When the infection rate of the breeding mice reached 15-30%, their eyeballs were removed and blood was collected in an anticoagulant tube. After shaking well, the blood was transmitted to offspring C57BL/6J mice with a 1 mL syringe at an injection dose of 0.2 mL/mouse. • 2. Plasmodium inoculation: C57BL/6J mice were weighed and fed adaptively. When the infection rate of offspring C57BL/6J mice reached 15-30%, the total number of red blood cells and the number of pRBCs were counted after their eyeballs were removed and blood was collected. The blood was injected intraperitoneally into model group C57BL/6J mice at an injection dose of 0.2 mL (including 1×10^7 pRBCs) per mouse, which was the 0th day (D0) of inoculation. • 3. Animal grouping: After inoculation, the experimental mice were randomly divided into 5 groups, including a model (M) group, high, medium and low dose Artesunazine groups (i.e., 40 mg/kg, 20 mg/kg, and 10 mg/kg Artesunazine), and an artesunate group (i.e., 15.6 mg/kg AS, clinically equivalent dose). The dosage of the medium dose Artesunazine group (20mg/kg Artesunazine) is equivalent to that of the artesunate group (15.6 mg/kg). There are 10 mice in each group, a total of 50 mice. • 4. Determination of survival rate From the 0th day of inoculation, the death of mice was observed every day for 28 consecutive days. Survival rate = (Number of surviving mice)/(Number of experimental mice) × 100% [formula] • 5. Determination of recurrence rate After inoculation, the mice were randomly divided into groups and administered via nasal drip for 3 h. After four consecutive days of administration, blood smear test began at D4. A small drop of blood was taken from the tail tip of a mouse and dropped onto a glass slide. The blood drop was pushed to one end at a certain angle with the edge of another glass slide to make a thin blood film with appropriate thickness. After the thin blood film was air-dried, it was fixed with methanol and placed until completely air-dried. After a Giemsa stain solution was diluted at a ratio of 1:9 for staining (completely covering the fixed thin blood film) for 20 min, the thin blood film was rinsed under a faucet, and the water on the surface of the film was quickly absorbed with filter paper. A drop of cedar oil was dropped onto a glass slide for examination under a 100x oil microscope to count the number of parasitized red blood cells contained in 1000 red blood cells. The mouse recurrence rate was calculated by the ratio of the number of mice with recurrence to the total number of mice. Recurrence rate = (Number of mice with recurrence)/(Number of experimental mice) × 100% [formula] • 6. RMCBS score determination A rapid mouse coma behavior scale (RMCBS) was used to evaluate the neurological function of experimental mice. […]

[4] = system: Plasmodium berghei ANKA strain; assay: Rapid mouse coma behavior scale (RMCBS) score of cerebral malaria model mice; type: in vivo, C57BL/6J mice; settings: AS group (15.6 mg/kg), at the end point of observation; total of 20 points
Description: as §1

[5] = system: Plasmodium berghei ANKA strain; assay: Body weight of cerebral malaria model mice; type: in vivo, C57BL/6J mice; settings: AS group (15.6 mg/kg), at the end of the observation; in g (unit assumed)
Description: as §1

[6] = mixed solution with ligustrazine hydrochloride in 80% polyethylene glycol 400, dark environment at 40°C
Experimental: 160.2 mg of Artesunazine was weighed and put into a penicillin bottle, 8 mL of a 80% polyethylene glycol 400 solution was added, and the Artesunazine was completely dissolved by ultrasonic treatment, resulting in about 20.25 mg/mL Artesunazine solution. Subsequently, the penicillin bottle filled with the solution was sealed, covered with aluminum foil paper for light avoidance treatment, and placed in a stability test box at 40°C; and 0.5 mL to 25 mL of the solution was sampled into volumetric flasks on days 0, 3, 7, and 10, respectively. After diluting with methanol and shaking well, the content of the Artesunazine was determined by an ultra performance liquid chromatography (UPLC) method.
The UPLC determination conditions for the Artesunazine are as follows: Instrument: ultra performance liquid chromatography Waters ACQUITY UPLC, chromatographic column: ACQUITY UPLC HSS T3 Column (100 Å, 1.8 µm, 2.1 mm×100 mm), detection wavelength: 295 nm, mobile phase: acetonitrile-0.1% phosphoric acid water (35:65), flow rate: 0.3 ml/min, column temperature: 30°C, sample room temperature: 25°C, injection volume: 3 µL. […]

[7] = Plasmodium falciparum, 3D7, 72 h

IC50 ([1]; Plasmodium falciparum standard strain 3D7, cultured for 72 h, read-out: IC50): 107 nM
SMILES: Cc1nc(C)c(COCCOC2OC3OC4(C)CCC5C(C)CCC(C2C)C35OO4)nc1C [Compound Ia-8, 2,3,5-trimethyl-6-[(2-(((3R, 5aS, 6R, 9R, 12R, 12aR)-3,6,9-trimethylbicyclo [3.2.1]heptane-12H-3, 12-epoxide [1, 2]dioxacycloheptane [4,3-i]isochromene-10-yl)oxy)ethoxy)methyl] pyrazine]

IC50 ([1]; Plasmodium falciparum, 3D7, standard antimalarial drug given for comparison, source of the value not stated, read-out: IC50): ~11.8 nM
SMILES: C[C@@H]1CC[C@H]2[C@@H](C)C(=O)O[C@@H]3O[C@@]4(C)CC[C@@H]1[C@]32OO4 [artemisinin, reference compound]

IC50 ([1]; Plasmodium falciparum, 3D7, standard antimalarial drugs given for comparison, source of the values not stated, read-out: IC50): ~3.96 nM
SMILES: OC(c1cc(C(F)(F)F)nc2c(C(F)(F)F)cccc12)C1CCCCN1 (stereo not shown) [mefloquine, reference compound]

The remaining lines, values behind:

SMILES: Cc1nc(C)c(COC(=O)C2CCN(CC(=O)OC3OC4OC5(C)CCC6C(C)CCC(C3C)C46OO5)CC2)nc1C [Compound Ia-9, (3,5,6-trimethylpyrazine-2-yl) methyl 1-(2-oxy-2-(((3R, 5aS, 6R, 9R, 10S, 12R, 12aR)-3,6,9-trimethyldecahydro-12H-3, 12-epoxy [1, 2]dioxacycloheptane-10-yl)oxy)ethyl) piperidine-4-formate]
IC50 [1, 7]: 32.7 nM

SMILES: C[C@H]1[C@H](OC(=O)CCC(=O)O)O[C@@H]2O[C@@]3(C)CC[C@H]4[C@H](C)CC[C@@H]1[C@@]24OO3 [artesunate, dihydroartemisinin-12-α-succinate, reference compound]
survival rate [2]: 40% | Recurrence rate (%) D4 ([3]; D4): 10% | Recurrence rate (%) D7 ([3]; D7): 90% | Recurrence rate (%) D28 ([3]; D28): 100% | RMCBS score [4]: 16.22±0.55 points | body weight [5]: 15.41±0.50 | IC50 [1, 7]: 8.82 nM | content of artesunate [6]: rapidly decreased

SMILES: CCN(CC)CCCC(C)Nc1ccnc2cc(Cl)ccc12 (stereo not shown) [chloroquine, reference compound]
IC50 ([1]; Plasmodium falciparum, 3D7): ~2.36 nM
